Columns and labels:
Type in all cases: in vivo
[1] = tested on: human bladder cancer cells (T24); assay: Pulmonary metastases of T24 human bladder cancer cells injected via tail vein into SCID-beige mice; conditions: for Number of metastases (mean ± SEM), T-24, with Enalapril: enalapril 10 mg/kg intraperitoneal twice a day, alone or with Cyclosporine 20 mg/kg or FK506 4 mg/kg every other day; for Incidence of tumors as compared to controls: summary of Table I (T24 and Renca) and Example 3 (T-24), in the absence of immunosuppressive agent
Procedure: (§1) In vivo tumor growth. Murine renal cell adenocarinoma cells (1×10^5 in Hanks balanced salt solution), murine Lewis lung carcinoma cells (1×10^5 cells), or human bladder cancer cells (1×10^5 cells) are injected via the tail vein into 6-wk old male SCID-beige mice. […] On day 19 or 23 post tumor inoculation, mice are killed and the number of pulmonary metastases is determined […] endotracheal insufflation of lungs with 15% India ink solution and bleaching the harvested lungs in Fekete's solution.
(§2) SCID-beige (immunodeficient) mice were inoculated with human bladder cancer cells (T24) or murine renal cancer cells (Renca). Tumor bearing mice were then treated with cyclosporin A or the angiotensin II receptor blocker, losartan or both.
(§3) Tumor cells (1×10^5 in HBSS) were injected via the tail vein into SCID-beige mice. […] The mice were sacrificed on day 19 (Renca) and day 23 (T24) and the number of metastases was counted as described (reference 7).

[2] = tested on: pulmonary metastasis; assay: Tumor progression / development of pulmonary metastasis in experimental animals (Example 2)
[3] = tested on: murine renal cancer cells (Renca); assay: Pulmonary metastases of Renca murine renal cancer cells injected via tail vein into SCID-beige mice; conditions: 1×10^5 Renca cells via tail vein, sacrificed day 19, CsA 20 mg/kg SQ QOD, Losartan 10 mg/kg SQ BID, untreated 125 ± 22
Procedure: as §1, with “solution. The effect of angiotensin II inhibitors and anti-angiotensin II mAbs and the control IgG1 mAbs on CsA-induced increase in the number of pulmonary metastases is determined by intraperitoneal administration of 200 μg of mAbs, on a daily basis starting from day −1 to day 19 post tumor inoculation.” for “solution.”
as §2, §3

[4] = SCID beige mice, 100,000 T-24 cells by tail vein

CCOC(=O)[C@H](CCc1ccccc1)N[C@@H](C)C(=O)N1CCC[C@H]1C(=O)O [Enalapril]
Number of metastases (mean ± SEM), T-24, with Enalapril [1, 4]: 21 ± 3
Incidence of tumors as compared to controls [1]: reduces the incidence of tumors as compared to controls
Effect on development of pulmonary metastasis [2]: prevented the development of pulmonary metastasis

C=CC[C@@H]1/C=C(\C)C[C@H](C)C[C@H](OC)[C@H]2O[C@@](O)(C(=O)C(=O)N3CCCC[C@H]3C(=O)O[C@H](/C(C)=C/[C@@H]3CC[C@@H](O)[C@H](OC)C3)[C@H](C)[C@@H](O)CC1=O)[C@H](C)C[C@@H]2OC [FK506]
Number of metastases (mean ± SEM), T-24, without Enalapril ([1]; SCID beige mice, 100,000 T-24 cells by tail vein, Cyclosporine 20 mg/kg or FK506 4 mg/kg every other day, no enalapril, untreated 38 ± 4): 72 ± 21
Number of metastases (mean ± SEM), T-24, with Enalapril [1, 4]: 30 ± 2

CCCCc1nc(Cl)c(CO)n1Cc1ccc(-c2ccccc2-c2nn[nH]n2)cc1 [Losartan]
Number of Pulmonary Metastases (Mean ± SEM), Renca [3]: 67 ± 15
Number of Pulmonary Metastases (Mean ± SEM), T24 ([1]; SCID-beige mice, 1×10^5 T24 cells via tail vein, sacrificed day 23, CsA 20 mg/kg SQ QOD, Losartan 10 mg/kg SQ BID, untreated 25 ± 7): 12 ± 3
Incidence of tumors as compared to controls [1]: reduces the incidence of tumors as compared to controls
